Measurements as given in patent publication US11174267B2, “Spiroindolinones and therapeutic uses thereof” (The Regents of the University of California, priority 2015, dated 2021).
Read-outs that look alike come from different tables or passages of the source.

Columns and labels:
[1] = test system: cdr1/CDR1 heterozygous mutant and cdr1/cdr1 deletion strain; assay: Azole-synergizer effect in cdr1 mutants; type: cell-based, Candida albicans; conditions: with FLC
Description: Strains and growth condition. The wild-type Candida albicans strains used were SC5314 and CaSS1. Cdr1 heterozygous were from Merck Sharp & Dohme Corp. Double Barcoded (DBC) library of heterozygous Candida albicans mutants (version 2013A). Cdr1 deficient mutant was obtained by counterselection of the GRACE library strain on 5-Fluoroorotic Acid (5-FOA) containing plate. Clinical isolated resistant C. albicans were from Dr. David Rogers. Cryptococcus neoformans var. grubii H99 (ATCC 208821) and Candida glabrata BG2, a fluconazole-resistant clinical isolate, were used. Yeast strains were cultured at 30° C. in synthetic complete (SC) medium containing 2% glucose.
Manually Screening. Of the DBC library was carried out in 96-well flat bottom plates. Briefly, BDC library grown in YPD agar were transferred to SC medium in 96-well flat bottom plates with a 96-well pin tool and grown overnight at 30° C. Cell cultures were diluted 1:800 in fresh SC medium with or without compounds and incubated at 30° C. for 24 h. Cell growth was measured with Tecan GENios Plus microplate reader (Tecan, Switzerland).
Small number of outliers in the HIP profiling indicates few off-targets for the compound. To avoid missing genes due to the bias of PCR and sequencing, a manual screening of the DBC library with Compound 1 and FLC in 96 well plates was also carried out.

NIH 3T3 cells = assay: Cytotoxicity, LDH assay; type: cell-based; conditions: concentrations up to 1.5 mM
Experimental: The cytotoxicity of spiroindoline Compounds 1, 8 and 25 were tested against NIH 3T3 cells at concentrations up to 1.5 mM (FIG. 13) using an LDH assay.

[2] = Solubility limit in the checkerboard assay; type: physicochemical; conditions: checkerboard assay medium
Description: (§1) In all of the strains tested, the FIC index was below 0.5, fitting the classical definition of synergy.

[3] = test system: C. albicans strain HLY4123 and clinical isolates 26 and 45; assay: Checkerboard assay (MIC90, FIC index); type: cell-based, Candida albicans; conditions: for MIC90: Candida albicans; for FICI: Compound 25 + fluconazole
Experimental: Checkerboard assays were carried out using four 24-well plates. The results on each plate were normalized by duplication of one row and one column with a row and column on another plate. C. albicans was grown in SC medium overnight and then diluted to an effective OD600 of 0.0625. Serial ten-fold dilutions of the test compounds (150 mM) were prepared in DMSO in 1.5 mL Eppendorf tubes. […] Concentrations of compound in rows 1-11 varied from 300 μM to 0.0003 nM; the last row 12 contained no compound. […] The plates were incubated in a rotary shaker/incubator at 30° C. for 16 h. The contents of each well was resuspended with a micropipettor and a 20 μL aliquot was added to a polystyrene cuvette and diluted with 680 μL of deionized water. The suspension was triturated again immediately before measuring the absorbance at 600 nm. The MIC90 values were determined as the lowest concentrations of the drugs (alone or in combination) that inhibited fungal growth by 90% compared with that of the drug-free wells.
as §1

[4] = test system: resistant clinical isolates of C. albicans; assay: EC50 against selected resistant clinical isolates with fluconazole; type: cell-based; conditions: Candida albicans, fluconazole 64 μg/mL
Experimental: C. albicans was grown in SC medium overnight and then diluted to an effective OD600 of 0.0625. Serial ten-fold dilutions of the test compounds (0.15-1500 μM) were prepared in DMSO in 1.5 mL Eppendorf tubes. […] The plates were incubated in a rotary shaker/incubator at 30° C. for 16 h. The contents of each well was resuspended with a micropipettor and a 20 μL aliquot was added to a polystyrene cuvette and diluted with 680 μL of deionized water. The suspension was triturated again immediately before measuring the absorbance at 600 nm (OD600) for cell densities. EC50 values were determined by fitting to the Hill equation using the Excel-based tool ED50PLUS v1.0 (Mario H. Vargas) or using Mathematica. Similar procedures were used for Candida glabrata and Cryptococcus neoformans.
(Flowers, S. A., et al. Eukaryotic Cell 2012, 11, 1289-1299.) The strains grow at dramatically different rates.

Row | Structure (SMILES) | effect as azole-synergizer in cdr1 mutants [1] | cytotoxicity (NIH 3T3 cells) | solubility [2] [µM] | MIC90 ([3]; read-out: MICcpd (+Flc) (MIC90), clinical isolate 26, with fluconazole) [µM] | MIC90 ([3]; read-out: MICcpd (+Flc) (MIC90), clinical isolate 45, with fluconazole) [µM] | MIC90 ([3]; read-out: MICcpd (+Flc) (MIC90), strain HLY4123, with fluconazole) [µM] | MIC90 ([3]; read-out: MICcpd (MIC90), clinical isolate 26, compound alone) [µM] | MIC90 ([3]; read-out: MICcpd (MIC90), clinical isolate 45, compound alone) [µM] | MIC90 ([3]; read-out: MICcpd (MIC90), strain HLY4123, compound alone) [µM] | FIC index ([3]; all of the strains tested, with fluconazole) | toxicity of compound alone against the strains ([3]; alone, at the solubility limit, any of the strains) | FICI ([3]; clinical isolate 26) | FICI ([3]; clinical isolate 45) | FICI ([3]; strain HLY4123) | EC50 ([4]; read-out: Potency Cpd 25 EC50, clinical isolate 17) [nM] | EC50 ([4]; read-out: Potency Cpd 25 EC50, clinical isolate 23) [nM] | EC50 ([4]; read-out: Potency Cpd 25 EC50, clinical isolate 26) [nM] | EC50 ([4]; read-out: Potency Cpd 25 EC50, clinical isolate 33) [nM] | EC50 ([4]; read-out: Potency Cpd 25 EC50, clinical isolate 36) [nM] | EC50 ([4]; read-out: Potency Cpd 25 EC50, clinical isolate 45) [nM]
1 | Cc1c(Cl)ccc2c1NC(=O)[C@]21N[C@H](Cc2ccccc2)[C@@H]2C(=O)N(c3ccc(F)cc3)C(=O)[C@@H]21 (racemic) [Compound 1, (±)-(3R,3′R,3a′R,6a'S)-3′-benzyl-6-chloro-5′-(4-fluorophenyl)-7-methyl-2′,3′,3a′,6a′-tetrahydro-4′H-spiro[indoline-3,1′-pyrrolo[3,4-c]pyrrole]-2,4′,6′(5′H)-trione] | significantly enhanced in the cdr1/CDR1 heterozygous mutant but blocked in the cdr1/cdr1 deletion strain | weak to negligible cytotoxicity |  |  |  |  |  |  |  |  |  |  |  |  |  |  |  |  |  | 
2 | Cc1c(Cl)ccc2c1NC(=O)[C@@]21[C@H]2C(=O)N(c3ccccc3)C(=O)[C@H]2[C@H]2CN(C(=O)OCc3ccccc3)CCN21 (racemic) [Compound 25, (±)-benzyl (3R,3a′R,3b'S,9a'S)-6-chloro-7-methyl-1′,2,3′-trioxo-2′-phenyl-2′,3′,3a′,3b′,4′,6′,7′,9a′-octahydrospiro[indoline-3,9′-pyrrolo[3′,4′:3,4]pyrrolo[1,2-a]pyrazine]-5′(1′H)-carboxylate] |  |  | 30 to 300 | 0.3 | 0.03 | 0.03 | > 30 | > 30 | > 300 | below 0.5 | did not have measurable toxicity | 0.14 | 0.13 | 0.25 | 5 | 53 | 2 | 11 | 5 | 16
